Experimental findings from PubChem BioAssay AID328 (DTP/NCI, 2004) are described below.

The test system of this experiment is BDF1 mice, P388 leukemia ip, median survival T/C. Put plainly: NCI In Vivo Anticancer Drug Screen. Data for tumor model P388 Leukemia (intraperitoneal) in B6D2F1 (BDF1) mice. Conditions: endpoint: median survival time, higher = longer survival. In a few lines: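 Antitumour effect was judged in vivo: survival in drug-treated mice, normalised to that of vehicle-dosed controls, gives the reported T/C.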

Setting [1] is: dose: 100.0 mg/kg/injection, schedule: Q04DX003 (ip), vehicle: saline with Tween-80.
Where [2] appears, read: dose: 200.0 mg/kg/injection, schedule: Q04DX003 (ip), vehicle: saline with Tween-80.
Setting [3] is: dose: 400.0 mg/kg/injection, schedule: Q04DX003 (ip), vehicle: saline with Tween-80.
Setting [4] is: dose: 50.0 mg/kg/injection, schedule: Q01DX009 (ip), vehicle: saline with Tween-80.
The mark [5] stands for this setting: dose: 100.0 mg/kg/injection, schedule: Q01DX009 (ip), vehicle: saline with Tween-80.
Setting [6] is: dose: 200.0 mg/kg/injection, schedule: Q01DX009 (ip), vehicle: saline with Tween-80.
Setting [7] is: dose: 100.0 mg/kg/injection, schedule: Q01DX009 (ip), vehicle: saline.
Where [8] appears, read: dose: 100.0 mg/kg/injection, schedule: Q04DX003 (ip), vehicle: saline.
Where [9] appears, read: dose: 50.0 mg/kg/injection, schedule: Q01DX009 (ip), vehicle: saline.
Setting [10] is: dose: 200.0 mg/kg/injection, schedule: Q04DX003 (ip), vehicle: saline.
The mark [11] stands for this setting: dose: 12.5 mg/kg/injection, schedule: Q01DX009 (ip), vehicle: saline.
[12] abbreviates: dose: 25.0 mg/kg/injection, schedule: Q01DX009 (ip), vehicle: saline.
[13] abbreviates: dose: 200.0 mg/kg/injection, schedule: Q01DX009 (ip), vehicle: saline.

Values joined by “and” are separate entries in the source; they are usually repeats but may differ in a detail not shown here. Identical values can stand only once. Toxic doses and inconclusive results are not listed.

For the compound `C/C=C1/C[C@@H](C)[C@@](C)(O)C(=O)OCC2=CC[N+]3([O-])CC[C@@H](OC1=O)[C@@H]23` (stereo partly specified), the T/C reads like this: (dose: 10.0 mg/kg/injection, schedule: Q01DX010 (ip), vehicle: saline) 109 % of control; (dose: 20.0 mg/kg/injection, schedule: Q01DX010 (ip), vehicle: saline) 104 % of control; (dose: 40.0 mg/kg/injection, schedule: Q01DX010 (ip), vehicle: saline) 113 % of control; (dose: 80.0 mg/kg/injection, schedule: Q01DX010 (ip), vehicle: saline) 109 % of control.

On to `NC(=O)C(CC(=O)OCc1ccccc1)NC(=O)OCc1ccccc1` (stereo unspecified), for which the T/C by setting is: under setting [1], 100 % of control; under setting [2], 95 % of control; under setting [3], 104 % of control.

As for `Cn1c(=O)[nH]cc([N+](=O)[O-])c1=O`, the T/C reads like this: under setting [4], 104 % of control; under setting [5], 105 % of control; under setting [6], 98 % of control.

For the compound `O=N[O-].O=N[O-].[NH-]CC[NH-].[Pt+2]`, the T/C by setting is: (dose: 25.0 mg/kg/injection, schedule: Q04DX003 (ip), vehicle: saline) 95 % of control; (dose: 50.0 mg/kg/injection, schedule: Q04DX003 (ip), vehicle: saline) 108 % of control; under setting [7], 90 % of control; under setting [8], 95 % of control.

With `COc1cccc2c1C(=O)c1c(O)c3c(c(O)c1C2=O)C[C@@](O)(/C(C)=N/NC(=O)c1ccc(N(C)C)cc1)C[C@@H]3OC1CC(N)C(O)C(C)O1` (stereo partly specified), the T/C (dose: 0.25 mg/kg/injection, schedule: Q01DX009 (ip), vehicle: water) was 96 % of control; the T/C (dose: 1.0 mg/kg/injection, schedule: Q01DX009 (ip), vehicle: water) is 107 % of control and 110 % of control; the T/C (dose: 2.0 mg/kg/injection, schedule: Q01DX009 (ip), vehicle: water) was 233 % of control and 154 % of control; the T/C (dose: 4.0 mg/kg/injection, schedule: Q01DX009 (ip), vehicle: water) is 179 % of control; the T/C (dose: 8.0 mg/kg/injection, schedule: Q01DX009 (ip), vehicle: water) was 243 % of control.

With `CN=C(N)c1ccc(NC(=O)c2ccc(C(=O)Nc3ccc(C(N)=NC)cc3)c(N)c2)cc1`, the T/C reads like this: (dose: 2.0 mg/kg/injection, schedule: Q04DX003 (ip), vehicle: Klucel (hydroxypropylcellulose) (HPC)) 107 % of control; (dose: 2.6 mg/kg/injection, schedule: Q01DX009 (ip), vehicle: Klucel (hydroxypropylcellulose) (HPC)) 190 % of control; (dose: 3.0 mg/kg/injection, schedule: Q04DX003 (ip), vehicle: Klucel (hydroxypropylcellulose) (HPC)) 115 % of control; (dose: 4.0 mg/kg/injection, schedule: Q01DX009 (ip), vehicle: Klucel (hydroxypropylcellulose) (HPC)) 263 % of control; (dose: 6.0 mg/kg/injection, schedule: Q01DX009 (ip), vehicle: Klucel (hydroxypropylcellulose) (HPC)) 272 % of control; (dose: 6.25 mg/kg/injection, schedule: Q01DX009 (ip), vehicle: Klucel (hydroxypropylcellulose) (HPC)) 150 % of control. The T/C is, setting by setting: (dose: 8.0 mg/kg/injection, schedule: Q04DX003 (ip), vehicle: Klucel (hydroxypropylcellulose) (HPC)) 150 % of control and 175 % of control; (dose: 12.0 mg/kg/injection, schedule: Q04DX003 (ip), vehicle: Klucel (hydroxypropylcellulose) (HPC)) 170 % of control and 190 % of control; (dose: 12.5 mg/kg/injection, schedule: Q04DX003 (ip), vehicle: Klucel (hydroxypropylcellulose) (HPC)) 169 % of control; (dose: 18.0 mg/kg/injection, schedule: Q04DX003 (ip), vehicle: Klucel (hydroxypropylcellulose) (HPC)) 150 % of control and 209 % of control.

With `CCOC(=O)CN(C)C#N`, the T/C was 110 % of control under setting [9]; 109 % of control (dose: 87.5 mg/kg/injection, schedule: Q01DX009 (ip), vehicle: saline); 105 % of control under setting [7]; 104 % of control under setting [8]; 104 % of control (dose: 175.0 mg/kg/injection, schedule: Q01DX009 (ip), vehicle: saline); 104 % of control under setting [10]. In addition, the T/C reads like this: (dose: 265.0 mg/kg/injection, schedule: Q01DX009 (ip), vehicle: saline) 109 % of control; (dose: 400.0 mg/kg/injection, schedule: Q01DX009 (ip), vehicle: saline) 95 % of control; (dose: 400.0 mg/kg/injection, schedule: Q04DX003 (ip), vehicle: saline) 104 % of control.

As to `C[N+]1(C2CCC3CCC2C3O)CCCCC1` (stereo unspecified), the T/C was 90 % of control under setting [8] and 122 % of control under setting [10].

For `C[C@@H]1C[C@@]2(C)[C@@H](CC[C@@H]3[C@@H]2CC[C@]2(C)[C@@H](O)CC[C@@H]32)C[C@@H]1O`, the T/C was 100 % of control (dose: 220.0 mg/kg/injection, schedule: Q01DX010 (sc), vehicle: steriod suspending solution) and 115 % of control (dose: 440.0 mg/kg/injection, schedule: Q01DX010 (sc), vehicle: steriod suspending solution).

`CC=NC(C[S-])C(=O)O.CC=NC(C[S-])C(=O)O.[Fe+2]` (stereo unspecified): the T/C is, setting by setting: under setting [4], 110 % of control; under setting [5], 100 % of control and 105 % of control; under setting [6], 100 % of control and 104 % of control.

Take `O=C1NC(=O)C(c2ccccc2)(c2ccccc2)N1CCS`: the T/C was 96 % of control and 104 % of control under setting [11]; 99 % of control and 104 % of control under setting [12]; 93 % of control under setting [9]; 89 % of control and 99 % of control under setting [7]; 112 % of control and 113 % of control under setting [13].

Regarding `COc1ccc(S(=O)(=O)NCCC#N)cc1NC(C)=O`, the T/C is 100 % of control (dose: 100.0 mg/kg/injection, schedule: Q01DX001 (ip), vehicle: saline sonified); 100 % of control (dose: 200.0 mg/kg/injection, schedule: Q01DX001 (ip), vehicle: saline sonified); 100 % of control (dose: 400.0 mg/kg/injection, schedule: Q01DX001 (ip), vehicle: saline sonified).

With `CCCNCC(O)c1cc(C(F)(F)F)nc2c(C(F)(F)F)cccc12` (stereo unspecified), the T/C was 115 % of control under setting [4] and 104 % of control under setting [5].

Consider `O=c1cc(CO)[nH]cc1O`, for which the T/C (dose: 177.0 mg/kg/injection, schedule: Q01DX009 (ip), vehicle: Klucel (hydroxypropylcellulose) (HPC)) was 119 % of control.

As for `CS(=O)(=O)OC[C@@H](O)[C@@H](O)COS(C)(=O)=O`, the T/C is 116 % of control under setting [9] and 107 % of control under setting [7].

Regarding `CCOC(=O)NC(C)(C)CN(C(=O)OCC)c1ccccc1`, the T/C (dose: 44.0 mg/kg/injection, schedule: Q04DX003 (ip), vehicle: saline with Tween-80) is 95 % of control; the T/C (dose: 66.0 mg/kg/injection, schedule: Q04DX003 (ip), vehicle: saline with Tween-80) was 104 % of control; the T/C under setting [1] is 90 % of control; the T/C (dose: 150.0 mg/kg/injection, schedule: Q04DX003 (ip), vehicle: saline with Tween-80) was 95 % of control.

As for `CCCn1c2ccccc2c2ccccc21`, the T/C reads like this: (dose: 100.0 mg/kg/injection, schedule: Q01DX009 (ip), vehicle: Klucel (hydroxypropylcellulose) (HPC)) 120 % of control; (dose: 200.0 mg/kg/injection, schedule: Q01DX009 (ip), vehicle: Klucel (hydroxypropylcellulose) (HPC)) 100 % of control; (dose: 400.0 mg/kg/injection, schedule: Q01DX009 (ip), vehicle: Klucel (hydroxypropylcellulose) (HPC)) 95 % of control.

As for `COc1ccc(CC2=NCCc3cc(OC)c(OC)cc32)cc1OC`, the T/C runs as follows: under setting [11], 153 % of control; under setting [12], 99 % of control.

With `COc1cc2c(cc1OC)C(CN)C2` (stereo unspecified), the T/C was 98 % of control under setting [9], 96 % of control under setting [7] and 98 % of control under setting [13].

Turning to `Nc1ncnc2c1ncn2C1CC(O)C(CO)O1` (stereo unspecified), the T/C (dose: 440.0 mg/kg/injection, schedule: Q01DX009 (ip), vehicle: saline with Tween-80) was 93 % of control; the T/C (dose: 660.0 mg/kg/injection, schedule: Q01DX009 (ip), vehicle: saline with Tween-80) is 93 % of control; the T/C (dose: 1000.0 mg/kg/injection, schedule: Q01DX009 (ip), vehicle: saline with Tween-80) is 105 % of control.

Regarding `CCOC(=O)c1cnc2ccc(OC)cc2c1Cl`, the T/C is, setting by setting: under setting [4], 95 % of control; (dose: 50.0 mg/kg/injection, schedule: Q04DX003 (ip), vehicle: saline with Tween-80) 91 % of control; under setting [5], 111 % of control; under setting [1], 103 % of control; under setting [6], 99 % of control; under setting [2], 103 % of control. In addition, the T/C was 96 % of control (dose: 400.0 mg/kg/injection, schedule: Q01DX009 (ip), vehicle: saline with Tween-80) and 95 % of control under setting [3].
